Values after ≈ are worked out from the molar mass of the structure shown. Read-outs that look alike come from different tables or passages of the source.

The conditions of data set [1]: Corriedale, sheep, in vivo, po, 100 mg/kg.
In data set [2] the test system is foot-and-mouth disease virus serotype C. It counts as cell-based.
Data set [3] deals with foot-and-mouth disease virus (O/JPN/2000 strain). The data set can be described thus: microbe, parasite or virus in culture. Conditions: in Sus scrofa, 72 h, read-out: plaque formation 50% inhibitory rate (IC50). It counts as cell-based.
The test system of data set [4] is foot-and-mouth disease virus serotype Asia 1. Type of data set: cell-based.
The conditions of data set [5]: black-haired Japanese cattle, bovine, in vivo, po, 100 mg/kg.
Data set [6] relates to Vero cells. The data set can be described thus: cells. It counts as cell-based. Conditions: Chlorocebus sabaeus, 96 h, read-out: 50% cell growth inhibitory concentration (IC50).
Data set [7] relates to foot-and-mouth disease virus serotype A. It counts as cell-based.
The conditions of data set [8]: pig, in vivo, po, 100 mg/kg.
For data set [9], the system named is foot-and-mouth disease virus. Conditions: pig, in vivo.

Turning to `NC(=O)c1nccnc1O` [T-1105, 3-oxo-3,4-dihydro-2-pyrazinecarboxamide], in data set [1], the “Plasma concentration 2 hrs after administration” value (“Plasma concentration 2 hrs” below) came out at 30900 ng/mL and the “Plasma concentration 8 hrs after administration” value (“Plasma concentration 8 hrs” below) came to 10200 ng/mL. In addition, the “25% or more inhibitory concentration” value in [2] turned out to be 1.25 µg/mL. The IC50 in [3] was determined as 1.6 µg/mL (≈ 11.5 µM). Besides, in data set [4], the “25% or more inhibitory concentration” value is 0.625 µg/mL. In [5], the “Plasma concentration 2 hrs” value was found to be 7860 ng/mL and the “Plasma concentration 8 hrs” value came out at 173 ng/mL. Further, in [6], the IC50 was ≥ 250 µg/mL. For the same molecule, the “25% or more inhibitory concentration” value in data set [7] was 0.313 µg/mL. Besides, in data set [8], the “Plasma concentration 2 hrs” value stood at 75000 ng/mL and the “Plasma concentration 8 hrs” value was 36400 ng/mL. Moreover, in [9], the “change in appearance (lameness, dysstasia, blister formation in feet)” value is on record as “no change in their appearance”; the “plasma viral load, in words” value was “remained at the detection limit or bellow”; the “viral load in the nasal swab, in words” value is “scarcely increased”. For the same molecule, in data set [9] (400 mg/kg/day), the clinical sign entry is “−”, the plasma viral load is on record as <0.14 TCID50/μL, the “toxic finding during the administration period” value is “no toxic finding” and the “viral load in the nasal swab” value is on record as <0.07 TCID50/μL of swab solution.

The record behind these values is patent US8815842B2 (priority 2006, dated 2014).
